Source: patent US20140194479A1, “COMPOSITIONS AND METHODS FOR TREATING MOOD DISORDERS” (priority 2011, published 2014)

What was measured:
[1] = test system: 5-HT/5-HIAA levels in the forebrain neocortex; conditions: 300 mg/kg twice per day, within 5 days; Gurevich et al., 2002; cited from earlier work
HDAC3 [2] = molecular target: T1, HDAC3 (Homo sapiens, UniProt O15379); conditions: read-out: IC50 HDAC 3; cited from earlier work
Target sequence in this assay (O15379 whole entry, species assumed): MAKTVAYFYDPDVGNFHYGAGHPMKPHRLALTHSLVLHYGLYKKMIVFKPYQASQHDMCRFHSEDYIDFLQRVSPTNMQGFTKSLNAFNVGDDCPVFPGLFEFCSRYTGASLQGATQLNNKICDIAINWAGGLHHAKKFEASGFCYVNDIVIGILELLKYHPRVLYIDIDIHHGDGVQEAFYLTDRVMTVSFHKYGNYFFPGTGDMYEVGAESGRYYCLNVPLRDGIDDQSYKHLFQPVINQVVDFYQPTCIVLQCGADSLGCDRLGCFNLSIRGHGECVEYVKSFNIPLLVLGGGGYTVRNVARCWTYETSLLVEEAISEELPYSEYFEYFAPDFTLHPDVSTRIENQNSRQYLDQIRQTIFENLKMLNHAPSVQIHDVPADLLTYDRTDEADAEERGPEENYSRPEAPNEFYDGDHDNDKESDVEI
Target sequence in this assay (Q9Y618 395-489 partner limits assumed, species assumed): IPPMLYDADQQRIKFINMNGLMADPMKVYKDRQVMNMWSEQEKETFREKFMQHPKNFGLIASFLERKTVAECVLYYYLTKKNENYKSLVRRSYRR

[3] = test system: histone H3 and H4 proteins in the forebrain neocortex; experiment: Western blotting of histone proteins, forebrain neocortex of IMS Balb/c mice; type: in vivo
Experimental: (§1) Forebrain neocortical tissue was dissected in phosphate-buffered saline supplemented with protease inhibitors and homogenized in 0.5% SDS, protease inhibitor cocktail (Complete Mini, Roche, Germany), 10 mM EDTA, and 10 mM Tris HCl (pH 8.0). Protein concentration was measured using the NanoDrop instrument (Thermo Scientific, Wilmington, Del.).
(§2) For loading controls, an anti-GAPDH antibody was used (Abcam, Cambridge, Mass.; 1:100,000). After incubation with primary antibody, membranes were incubated with a horseradish-peroxidase-conjugated secondary antibody (anti-rabbit IgG-HRP; Sigma, St. Louis, Mo.; dilution: 1:5,000) for 1 hour at room temperature. SuperSignal West Dura (Thermo Scientific, Waltham, Mass.) was used to visualize bound antigen. Optical densities (OD) of histone protein signals were determined using NIH ImageJ software. ODs were normalized to corresponding ODs obtained for GAPDH.

SFR Balb/c mice [4] = experiment: Elevated Plus Maze (EPM), SFR Balb/c mice; type: in vivo; conditions: for time spent in the open arms of the EPM: SFR Balb/c treated during adolescence (P35 to P60), vs non-treated controls
SFR Balb/c mice [5] = experiment: Forced Swim Test (FST), SFR (non-stressed) Balb/c mice; type: in vivo; conditions: for immobility in the FST: SFR Balb/c treated during adolescence (P35 to P60), vs SFR controls
Experimental: (§4) For chronic drug treatment, drugs were administered via the drinking water. […] Suberoylanidide hydroxamic acid (SAHA) was dissolved in DMSO and subsequently diluted about 100 fold in water containing 0.2% sucrose. Mice consumed about 200 mg/kg/day of SAHA (Butler et al., 2000) and their controls received drinking water supplemented with the same amount of DMSO and sucrose that SAHA-treated animals received. […] In these experiments, mice received a single intraperitoneal injection of SAHA (100 mg/kg) at P35, followed by SAHA treatment via the drinking water for the next 3 days.
Three days later, mice were tested in a modified version of Forced Swim Test (FST), i.e., a 6 minute exposure on day 1 followed by another 6 minute exposure on day 2.

[6] = test system: histone H3 and H4 proteins in the forebrain neocortex; experiment: Western blotting of histone proteins, forebrain neocortex of SFR Balb/c mice; type: in vivo
Experimental: as §1, §2

[7] = test system: histone H3 and H4 proteins in the forebrain neocortex; experiment: Western blotting of histone proteins, forebrain neocortex of C57BI/6 mice; type: in vivo; conditions: C57BI/6 mice at P60, IMS-fluoxetine, OD normalized to GAPDH, mean ± sem
Experimental: as §1, §2

[8] = test system: aCH4K12 at BDNF promotors; experiment: ChIP/real-time PCR, aCH4K12 enrichment at BDNF promotors; type: in vivo, Balb/c mice; conditions: non-stressed Balb/c treated P35 to P59; FIG. 15B
Excerpt: (§3) Data in (FIG. 15A) are mean±sem of 8 animals per group. Data in (FIG. 15B) and (FIG. 15C) were obtained from ChIP/real-time PCR measures (mean±sem; n=4/group) using antibodies directed against aCH4K12 (FIG. 15B) and Pol II (FIG. 15C). […] Data in (FIG. 15D) are from RT-real-time PCR measures of BDNF mRNA levels (mean±sem, n=5/group). […] All data were compared by ANOVA and significant differences between groups were resolved post hoc using Tukey Kramer multiple comparisons as indicated. In all studies, male and female mice were used.

[9] = test system: RNA Polymerase II (Pol II) at BDNF promotors; experiment: ChIP/real-time PCR, Pol II enrichment at BDNF promotors; type: in vivo, Balb/c mice; conditions: non-stressed Balb/c treated P35 to P59; FIG. 15C
Excerpt: as §3

SFR Balb/c mice [10] = conditions: adolescent treatment; Bhansali et al., 2007; cited from earlier work
HDAC mRNA = experiment: Real-time RT-PCR of HDAC mRNA, forebrain neocortex of IMS Balb/c mice
Excerpt: (§5) Briefly, offspring of first-time mothers were separated from their dam daily for three hours (from 1:00 to 4:00 P.M.) from postnatal age day 2 (P2) until P15. Control animals were standard facility-reared (SFR) pups of first-time mothers. Housing and husbandry conditions were identical for IMS and SFR mice. Pups were weaned at P28 and group housed by sex (five animals randomly selected from at least five different litters). Since this study involved behavioral tests of emotive phenotypes that are sensitive to differences in the estrus cycle of females, all studies disclosed below were conducted on male mice.
as §4

[11] = test system: extracellular 5-HT levels; conditions: McEwen et al., 2010, Mennini et al., 1987; cited from earlier work
HDAC1 = HDAC1 (Homo sapiens, UniProt Q13547); conditions: at concentration below 10^−4M; Ito et al., 2002; cited from earlier work
HDAC3 [12] = molecular target: T1, HDAC3; conditions: at concentration below 10^−4M; Ito et al., 2002; cited from earlier work
Target sequence in this assay (O15379 whole entry, species assumed): as the sequence (O15379 whole entry, species assumed) above

adenosine receptors = conditions: at concentration below 10^−4M; Ito et al., 2002; cited from earlier work
phosphodiesterases = conditions: at concentration below 10^−4M; Ito et al., 2002; cited from earlier work
IMS Balb/c mice [13] = experiment: Forced Swim Test (FST), IMS Balb/c mice
Excerpt: as §5, §4
Their times spent in open arms and the number of arm crossings was recorded. […]

IMS Balb/c mice [14] = experiment: Elevated Plus Maze (EPM), IMS Balb/c mice
Excerpt: as §5, §4
Their times spent in open arms and the number of arm crossings was recorded. Three days later, mice were tested in a modified version of Forced Swim Test (FST), i.e., a 6 minute exposure on day 1 followed by another 6 minute exposure on day 2.

[15] = Plasma concentration of theophylline under drinking water treatment; conditions: over 24 hours of theophylline-supplemented (10^−4M) drinking water consumption
Experimental: as §4

[16] = IMS Balb/c treated between P21 and P35
[17] = IMS Balb/c, adolescent fluoxetine vs non-treated IMS
[18] = IMS Balb/c, adolescent treatment, compared to non-treated IMS Balb/c mice
[19] = IMS Balb/c, fluoxetine during adolescence, OD normalized to GAPDH, mean ± sem
[20] = IMS Balb/c, treatment P35 to P60, vs non-treated IMS
[21] = SFR Balb/c, fluoxetine alone or with SAHA, OD normalized to GAPDH, mean ± sem
[22] = IMS-fluoxetine Balb/c at P60, mean±sem
[23] = SFR Balb/c, adolescent treatment

Chain of HDAC1 (Q13547 whole entry, species assumed): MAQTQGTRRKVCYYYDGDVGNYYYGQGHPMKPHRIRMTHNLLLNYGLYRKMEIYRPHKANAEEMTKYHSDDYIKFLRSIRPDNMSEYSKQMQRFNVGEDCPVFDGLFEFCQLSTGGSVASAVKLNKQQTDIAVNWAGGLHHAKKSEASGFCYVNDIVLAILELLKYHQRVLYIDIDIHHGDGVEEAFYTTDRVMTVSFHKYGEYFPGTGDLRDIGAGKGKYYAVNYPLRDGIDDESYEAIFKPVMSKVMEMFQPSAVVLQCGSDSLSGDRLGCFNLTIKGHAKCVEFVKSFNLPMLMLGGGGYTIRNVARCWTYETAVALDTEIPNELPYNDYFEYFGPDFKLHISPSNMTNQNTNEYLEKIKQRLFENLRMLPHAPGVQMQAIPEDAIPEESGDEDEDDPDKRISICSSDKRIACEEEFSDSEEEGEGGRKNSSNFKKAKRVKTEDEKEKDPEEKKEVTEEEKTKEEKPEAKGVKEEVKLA

## N[C@@H](Cc1ccc(Cl)cc1)C(=O)O (racemic) [pCPA, para-chlorophenylalanine]
[1]
  reduction of 5-HT/5-HIAA levels in the forebrain neocortex: about 80%

## CCCC(=O)[O-].[Na+] [sodium butyrate]
HDAC3 [2]
  IC50: 700 µM

## O=C(CCCCCCC(=O)Nc1ccccc1)NO [SAHA, suberoylanilide hydroxamic acid]
[3]; [16]
  effect on development of the adult epigenetic phenotype: did not prevent
  effect on the decreased acetylation of histone H4 proteins: prevented
SFR Balb/c mice [4]; SFR Balb/c treated during adolescence
  percentage of open arm entries in the EPM: lowest percentage
SFR Balb/c mice [4]
  time spent in the open arms of the EPM: significantly less time
SFR Balb/c mice [5]
  immobility in the FST: significantly increased

## CNCCC(Oc1ccc(C(F)(F)F)cc1)c1ccccc1 (centres unmarked) [fluoxetine]
[3]; [17]
  increase in acetylated H3K9 protein: 55%
  increase in acetylated H4K12 protein: 230%
  increase in total histone H3 protein expression: 60%
  increase in total histone H4 protein expression: 13%
[3]; [18]
  H3K4me3: Increased
  acH3K9: Increased
  acH4K5: Increased
  acH4K12: Increased
  acK4K8: Increased
[3]; [19]
  H3K4me3 expression: 0.94 ± 0.07
  H3K9me2 expression: 0.93 ± 0.03
  H3 expression: 1.31 ± 0.03
  acH3K9 expression: 1.21 ± 0.02
  acH4K5 expression: 0.94 ± 0.02
  acH4K8 expression: 1.51 ± 0.06
  acH4K12 expression: 1.16 ± 0.04
  acH4K16 expression: 1.04 ± 0.04
[3]; IMS Balb/c, fluoxetine during adolescence, OD on Western blots normalized to GAPDH, mean ± sem, n = 5
  H4 expression: 0.97 ± 0.05
[3]; [20]
  effect on acetylated H4K12 protein expression: significantly increased
  effect on acetylated histone H3K9 expression: significantly increased
  effect on acetylated histone H4K8 expression: significantly increased
  effect on dimethylated histone H3 protein expression: did not change
  effect on total H3 protein expression: increased
  effect on total H4 protein expression: increased
  effect on trimethylated histone H3 protein expression: increased
[6]; [21]
  H3K4me3 expression: 1.12 ± 0.02
  H3K9me2 expression: 1.08 ± 0.04
  H3 expression: 0.96 ± 0.01
  acH3K9 expression: 0.86 ± 0.03
  acH4K5 expression: 0.45 ± 0.06
  acH4K8 expression: 0.86 ± 0.06
  acH4K12 expression: 0.80 ± 0.03
  acH4K16 expression: 0.70 ± 0.06
[6]; SFR Balb/c, fluoxetine alone or with SAHA, OD on Western blots normalized to GAPDH, mean ± sem, n = 5
  H4 expression: 1.10 ± 0.04
[6]; SFR mice, adolescent fluoxetine 16 mg/kg/day vs vehicle, FIG. 7
  effect on histone H3/H4 expression: does not alter
[7]
  H3K4me3 expression: 0.94 ± 0.02
  H3K9me2 expression: 0.89 ± 0.03
  H3 expression: 0.98 ± 0.02
  acH3K9 expression: 1.00 ± 0.03
[7]; n = 5
  H4 expression: 1.00 ± 0.03
SFR Balb/c mice [4]
  time spent in the open arms of the EPM: did not differ
SFR Balb/c mice [5]
  immobility in the FST: did not differ
SFR Balb/c mice [5]; non-stressed Balb/c treated P35 to P59, vs vehicle and fluoxetine-only, FIG. 15A
  immobility in the forced swim test (FST), antidepressant-like effects: not achieved
[8]
  enrichment of aCH4K12 at BDNF promotor P1: higher enrichment
  enrichment of aCH4K12 at BDNF promotor P3: higher enrichment
[9]
  increase of density of Pol II associated with the P3 promotor of the BDNF gene: not in fluoxetine-only treated mice
SFR Balb/c mice [10]
  FST behavior of SFR controls: had no effect
HDAC mRNA; IMS Balb/c, treatment P35 to P60, nine HDAC mRNAs
  effect on HDAC mRNA expression levels: did not alter
HDAC mRNA; [22]
  HDAC1 mRNA expression, real-time PCR ½^ΔCt: 0.011±0.0006
  HDAC2 mRNA expression, real-time PCR ½^ΔCt: 0.0016±0.0001
  HDAC3 mRNA expression, real-time PCR ½^ΔCt: 0.055±0.004
  HDAC4 mRNA expression, real-time PCR ½^ΔCt: 0.011±0.002
  HDAC5 mRNA expression, real-time PCR ½^ΔCt: 0.044±0.006
  HDAC7 mRNA expression, real-time PCR ½^ΔCt: 0.011±0.001
  HDAC8 mRNA expression, real-time PCR ½^ΔCt: 0.0035±0.0004
  HDAC9 mRNA expression, real-time PCR ½^ΔCt: 0.001±0.0002
  HDAC10 mRNA expression, real-time PCR ½^ΔCt: 0.0074±0.0006

## Nc1ccccc1NC(=O)c1ccc(CNC(=O)OCc2cccnc2)cc1 [MS-275]
[6]; [23]
  effect on acetylated H4K5 expression: increased
  effect on acetylated H4K8 expression: increased
  effect on acetylated H4K12 expression: increased

## CN1c2ccccc2C(NCCCCCCC(=O)O)c2ccc(Cl)cc2S1(=O)=O (centres unmarked) [tianeptine]
[11]
  extracellular 5-HT levels: without marked changes

## Cn1c(=O)c2[nH]cnc2n(C)c1=O [theophylline]
SFR Balb/c mice [4]
  time spent in the open arms of the EPM: did not differ
SFR Balb/c mice [5]
  immobility in the FST: did not differ
HDAC1
  activation of HDAC1: activates
HDAC3 [12]
  activation of HDAC3: activates
Adenosine receptors
  antagonist effect on adenosine receptors: no antagonist effect
phosphodiesterases
  inhibition of phosphodiesterases: exerts no
IMS Balb/c mice [13]; IMS Balb/c treated P35 to P60, greater immobility of IMS mice
  total immobility time in the FST: significantly potentiated
IMS Balb/c mice [13]; SFR controls, IMS and treated IMS mice
  number of passive episodes in the FST: no significant differences
IMS Balb/c mice [14]; IMS Balb/c treated P35 to P60, vs non-treated IMS mice
  total time spent in open arms of the EPM: significantly less time
IMS Balb/c mice [14]; SFR controls, IMS and treated IMS Balb/c
  total number of arm crossings in the EPM: no significant difference
IMS Balb/c mice [14]; treated IMS Balb/c compared with SFR controls
  percentages of crossings into open arms: did not reach statistical significance
[15]
  plasma concentrations of theophylline: below 10^−4 M
